Experimental data taken from ChEMBL document CHEMBL1765061, “Synthesis of rabdokunmin C analogues and their inhibitory effect on NF-κB activation” (Bioorg Med Chem, 2011).
Activity calls are given as the source filed them. No cut-off for these calls is given here.

How the values were obtained:
RAW264 = experiment: Inhibition of LPS-induced NO production in mouse RAW264 cells after 24 hrs; assay type: functional, cell-based
[1] = Cytotoxicity against mouse RAW264 cells after 2 hrs by WST reagent-based microplate reader analysis; assay type: cell-based; details: raw264, 2 h
HEK-293T = experiment: Cytotoxicity against human 293T cells assessed as cell viability by dual-luciferase reporter assay; assay type: cell-based
[2] = Inhibition of LPS-induced NF-kappaB activation in human 293T cells incubated for 30 mins followed by treated with LPS for 6 hrs by dual-luciferase reporter assay; assay type: cell-based; details: HEK-293T

Compound | inhibition (RAW264) | Activity [1] | IC50 (HEK-293T) [nM] | IC50 [2] [nM]
C=C1C(=O)[C@@]23[C@H](O)C[C@H]4[C@@](C)(CCC[C@]4(C)C=O)[C@@H]2C[C@H](OC(C)=O)[C@@H]1[C@H]3O | Active | Toxic |  | 
C=C1C(=O)[C@@]23[C@@H]4OC(C)(C)O[C@@H]2C[C@@H]2[C@@](C)(CO)CCC[C@@]2(C)[C@@H]3C[C@H](O)[C@@H]14 | Active | Toxic |  | 
C=C1C(=O)[C@@]23[C@@H]4OC(C)(C)O[C@@H]2C[C@@H]2[C@@](C)(COC(=O)C(F)(F)F)CCC[C@@]2(C)[C@@H]3C[C@H](OC(=O)C(F)(F)F)[C@@H]14 | Active | Toxic |  | 
C=C1C(=O)[C@@]23[C@H](O)C[C@@H]4[C@@](C)(COC(C)=O)CCC[C@@]4(C)[C@@H]2C=C[C@@H]1[C@H]3O | Active | Toxic | > 5000 | 1470
C=C1C(=O)[C@@]23[C@H](O)C[C@@H]4[C@@](C)(CO)CCC[C@@]4(C)[C@@H]2C=C[C@@H]1[C@H]3O | Active | Toxic |  | 
C=C1C(=O)[C@@]23[C@H](O)C[C@@H]4[C@@](C)(COC(=O)CC)CCC[C@@]4(C)[C@@H]2C[C@H](OC(=O)CC)[C@@H]1[C@H]3O |  |  | > 5000 | > 5000
CC1=C(O)C(=O)C=C2C1=CC=C1[C@@]2(C)CC[C@@]2(C)[C@@H]3C[C@](C)(C(=O)O)CC[C@]3(C)CC[C@]12C [CELASTROL] | Active | Toxic | 670 | 170
C=C1C(=O)[C@@]23[C@@H]4OC(C)(C)O[C@@H]2C[C@@H]2[C@@](C)(COC(C)=O)CCC[C@@]2(C)[C@@H]3C[C@H](O)[C@@H]14 | Active | Toxic |  | 
C=C1C(=O)[C@@]23[C@H](O)C[C@@H]4[C@@](C)(COC(C)=O)CCC[C@@]4(C)[C@@H]2C[C@H](O)[C@@H]1[C@H]3O [ALBOPILOSIN A] | Active | Toxic |  | 
C=C1C(=O)[C@@]23[C@H](O)C[C@@H]4[C@@](C)(COC(=O)CCC)CCC[C@@]4(C)[C@@H]2C[C@H](OC(=O)CCC)[C@@H]1[C@H]3O |  |  | 2300 | 2970
C=C1C(=O)[C@@]23[C@@H]4OC(C)(C)O[C@@H]2C[C@@H]2[C@@](C)(CO)CCC[C@@]2(C)[C@@H]3C=C[C@@H]14 | Active | Toxic |  | 
C=C1C(=O)[C@@]23[C@H](O)C[C@H]4[C@@](C)(CCC[C@]4(C)C(=O)O)[C@@H]2C[C@H](OC(C)=O)[C@@H]1[C@H]3O | Active | Toxic |  | 
C=C1C(=O)[C@@]23[C@@H]4OC(C)(C)O[C@@H]2C[C@@H]2[C@@](C)(CO)CCC[C@@]2(C)[C@@H]3C[C@H](OC(C)=O)[C@@H]14 | Active | Toxic | 2390 | 1530
C=C1C(=O)[C@@]23[C@H](O)C[C@@H]4[C@@](C)(CO)CCC[C@@]4(C)[C@@H]2C[C@H](OC(=O)CCC)[C@@H]1[C@H]3O |  |  | 1910 | 1680
C[C@H]1C(=O)[C@@]23[C@H](O)C[C@@H]4[C@@](C)(CO)CCC[C@@]4(C)[C@@H]2C[C@H](O)[C@@H]1[C@H]3O | Active | Toxic |  | 
C=C1C(=O)[C@]23[C@H](O)[C@H]1CC[C@H]2[C@@]12CO[C@]3(O)[C@@H](O)[C@@H]1C(C)(C)CC[C@@H]2O [ORIDONIN] |  |  | > 5000 | 4440
C=C1C(=O)[C@@]23[C@H](O)C[C@@H]4[C@@](C)(COC(C)=O)CCC[C@@]4(C)[C@@H]2C[C@H](OC(C)=O)[C@@H]1[C@H]3O | Active | Toxic | 2920 | 2000
C=C1C(=O)[C@@]23[C@H](O)C[C@@H]4[C@@](C)(CO)CCC[C@@]4(C)[C@@H]2C[C@H](OC(C)=O)[C@@H]1[C@H]3O | Active | Toxic |  | 
C=C1C(=O)[C@@]23[C@@H]4OC(C)(C)O[C@@H]2C[C@@H]2[C@@](C)(COC(C)=O)CCC[C@@]2(C)[C@@H]3C[C@H](OC(C)=O)[C@@H]14 | Active | Toxic | 1800 | 2010
C=C1C(=O)[C@@]23[C@H](O)C[C@@H]4[C@@](C)(CO)CCC[C@@]4(C)[C@@H]2C[C@H](O)[C@@H]1[C@H]3O [RABDOKUNMIN C] | Active | Toxic |  | 
